The source made the active and inactive calls.
Tests used:
BJ [1] = assay: cytotoxicity toward BJ-TERT fibroblasts, dose response, cell-based, RAS-independent, luminescence (AID 1933); format: functional; conditions: Homo sapiens
[2] = target: Peroxisome proliferator-activated receptor gamma/Nuclear receptor coactivator 2 (Homo sapiens, UniProt P37231); format: functional;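 further: agonist potency for raising coactivator recruitment to the receptor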
BJ [3] = assay: cells; format: functional, cell-based; conditions: Homo sapiens
[4] = target: Peroxisome proliferator-activated receptor gamma/Nuclear receptor coactivator 1 (Homo sapiens, UniProt P37231); format: functional;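 further: agonist potency as compounds enhance coactivator SRC-1 recruitment to PPARgamma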
[5] = HepG2 cell cytotoxicity, dose response, cytotoxicity control for Shn3 inhibitor project, CellTiter-Glo, cherry-picked (AID 624134); format: functional, cell-based
[6] = target: Peroxisome proliferator-activated receptor gamma/Nuclear receptor coactivator 3 (Homo sapiens, UniProt P37231); format: functional;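 further: agonist potency for raising coactivator recruitment to the receptor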
[7] = control 3'UTR Renilla luciferase suppression, dose response, counter-screen for Shn3 inhibitor project, cell-based, Clone20-Shn3RL, cherry-picked (AID 624133); format: functional
[8] = cytotoxicity toward DRD oncogenic fibroblasts, dose response, cell-based, non-viral oncogenic, luminescence (AID 1934); format: functional; conditions: Homo sapiens
BJ [9] = assay: cytotoxicity toward BJ-TERT-LT-ST fibroblasts, dose response, cell-based, RAS-independent, luminescence (AID 1935); format: functional; conditions: Homo sapiens;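 further: BJ fibroblasts immortalized with TERT plus LT and ST oncogenes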
[10] = Shn3 3'UTR reporter inhibitors, dose response, cell-based, Clone20 osteoblasts, firefly luciferase, cherry-picked (AID 624132); format: functional;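 further: firefly luciferase luminescence from reporter carrying the Shn3 3'UTR in osteoblasts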
[11] = target: Eukaryotic translation initiation factor 4E (Mus musculus, UniProt P63073); assay: eIF4E–eIF4G protein interaction inhibitors, dose response, biochemical, TR-FRET (AID 855); format: functional;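 further: potency for disrupting eIF4E binding to eIF4GI seen as loss of FRET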
Coagulation factor XII = target: T1, Coagulation factor XII (Homo sapiens, UniProt P00748); format: functional;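 further: activated factor XIIa alpha cleaving a fluorogenic AMC peptide substrate; inhibitor potency from loss of enzyme activity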
T1 sequence (P00748 whole entry): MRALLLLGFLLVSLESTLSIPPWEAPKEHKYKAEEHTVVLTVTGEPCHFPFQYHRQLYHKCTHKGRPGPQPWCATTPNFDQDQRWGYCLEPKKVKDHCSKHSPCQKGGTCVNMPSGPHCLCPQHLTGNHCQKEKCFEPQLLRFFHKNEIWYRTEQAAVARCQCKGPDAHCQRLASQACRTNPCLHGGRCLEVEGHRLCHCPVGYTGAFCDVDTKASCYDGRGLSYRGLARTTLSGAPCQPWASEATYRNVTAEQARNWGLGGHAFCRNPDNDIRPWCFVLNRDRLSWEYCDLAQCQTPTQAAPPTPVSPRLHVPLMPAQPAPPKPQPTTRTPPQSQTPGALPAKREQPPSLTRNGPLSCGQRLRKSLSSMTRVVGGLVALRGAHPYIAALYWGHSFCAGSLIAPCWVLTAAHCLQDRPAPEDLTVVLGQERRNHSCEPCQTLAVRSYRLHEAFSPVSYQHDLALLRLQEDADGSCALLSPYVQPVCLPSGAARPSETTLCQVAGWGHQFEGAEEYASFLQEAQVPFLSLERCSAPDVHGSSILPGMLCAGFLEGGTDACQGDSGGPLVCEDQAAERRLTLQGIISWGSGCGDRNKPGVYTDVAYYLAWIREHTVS

[12] = target: Glyceraldehyde-3-phosphate dehydrogenase (Homo sapiens, UniProt P04406)
[13] = target: T2, Alkaline phosphatase, tissue-nonspecific isozyme (Homo sapiens, UniProt P05186); assay: human TNAP enzyme inhibitors, SAR follow-up, biochemical, luminescent, dose response (AID 1056)
T2 sequence (P05186 whole entry): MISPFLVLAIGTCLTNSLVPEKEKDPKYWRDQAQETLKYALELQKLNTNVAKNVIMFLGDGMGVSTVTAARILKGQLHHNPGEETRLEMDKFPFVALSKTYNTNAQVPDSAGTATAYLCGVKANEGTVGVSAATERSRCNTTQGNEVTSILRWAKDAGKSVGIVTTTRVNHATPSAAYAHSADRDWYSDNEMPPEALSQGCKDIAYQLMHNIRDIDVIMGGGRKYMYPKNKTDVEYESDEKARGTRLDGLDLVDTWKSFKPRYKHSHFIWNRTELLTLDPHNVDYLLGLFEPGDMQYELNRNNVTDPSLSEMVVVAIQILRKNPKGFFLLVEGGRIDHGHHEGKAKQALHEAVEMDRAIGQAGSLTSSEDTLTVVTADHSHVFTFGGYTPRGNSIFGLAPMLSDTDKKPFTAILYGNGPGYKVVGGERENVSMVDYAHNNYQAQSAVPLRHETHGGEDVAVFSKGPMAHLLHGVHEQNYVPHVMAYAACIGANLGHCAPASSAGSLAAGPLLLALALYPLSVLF

INS1 = assay: beta cell apoptosis inhibitors, cytokine rescue, dose response, luminescence, retest (AID 449756); format: functional, cell-based; conditions: Rattus norvegicus;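 further: cell death triggered by IL-1 beta plus TNF-alpha plus IFN-gamma mixture; protective hits raise ATP signal compared with cytokine alone wells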
[14] = Luminescence Cell-Based Dose Retest to Confirm Inhibitors of Cancer Stem Cells. [Related pubchem assays (depositor defined):AID2717, AID2721]; format: functional; conditions: Homo sapiens
[15] = target: Neurotensin receptor type 1 (Homo sapiens, UniProt P30989); format: functional;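 further: Image-based confirmatory dose-response assay measuring agonist activity at NTR1; NTR1-expressing U2OS osteosarcoma cells imaged for beta-arrestin GFP spot formation; agonist potency where compounds increase beta-arrestin recruitment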
[16] = nonselective inhibitors of cellular cAMP signaling, dose response, counter-screen for MC4R biased antagonist project, cell-based, TR-FRET cAMP detection (AID 602305); format: functional;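 further: U2OS cells stimulated with forskolin near its EC80 as the cAMP inducer; potency is for inhibition of forskolin-stimulated cAMP signaling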
Melanocortin receptor 4 = Melanocortin receptor 4 (Homo sapiens, UniProt P32245); assay: MC4R antagonist potency on cAMP, dose response, cell-based, TR-FRET, biased antagonists (AID 602298); format: functional;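 further: antagonist potency against agonist-stimulated cAMP production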

Glyceraldehyde-3-phosphate dehydrogenase, sequence (P04406 whole entry): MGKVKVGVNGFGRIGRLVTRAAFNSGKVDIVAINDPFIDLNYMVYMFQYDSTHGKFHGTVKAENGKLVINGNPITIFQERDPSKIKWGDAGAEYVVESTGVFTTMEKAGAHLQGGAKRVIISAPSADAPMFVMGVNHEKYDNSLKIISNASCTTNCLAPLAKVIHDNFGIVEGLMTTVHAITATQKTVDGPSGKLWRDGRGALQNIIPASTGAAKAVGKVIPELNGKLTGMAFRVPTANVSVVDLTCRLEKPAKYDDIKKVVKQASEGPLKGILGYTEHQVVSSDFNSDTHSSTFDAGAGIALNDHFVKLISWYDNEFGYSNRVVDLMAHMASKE
Eukaryotic translation initiation factor 4E, sequence (P63073 whole entry): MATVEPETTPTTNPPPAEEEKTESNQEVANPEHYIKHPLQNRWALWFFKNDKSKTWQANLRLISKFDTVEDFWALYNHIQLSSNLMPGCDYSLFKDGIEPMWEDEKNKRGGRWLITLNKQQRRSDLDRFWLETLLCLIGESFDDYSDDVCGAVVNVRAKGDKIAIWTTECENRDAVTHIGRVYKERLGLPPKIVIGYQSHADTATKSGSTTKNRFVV
Peroxisome proliferator-activated receptor gamma/Nuclear receptor coactivator 2, sequence (P37231 whole entry): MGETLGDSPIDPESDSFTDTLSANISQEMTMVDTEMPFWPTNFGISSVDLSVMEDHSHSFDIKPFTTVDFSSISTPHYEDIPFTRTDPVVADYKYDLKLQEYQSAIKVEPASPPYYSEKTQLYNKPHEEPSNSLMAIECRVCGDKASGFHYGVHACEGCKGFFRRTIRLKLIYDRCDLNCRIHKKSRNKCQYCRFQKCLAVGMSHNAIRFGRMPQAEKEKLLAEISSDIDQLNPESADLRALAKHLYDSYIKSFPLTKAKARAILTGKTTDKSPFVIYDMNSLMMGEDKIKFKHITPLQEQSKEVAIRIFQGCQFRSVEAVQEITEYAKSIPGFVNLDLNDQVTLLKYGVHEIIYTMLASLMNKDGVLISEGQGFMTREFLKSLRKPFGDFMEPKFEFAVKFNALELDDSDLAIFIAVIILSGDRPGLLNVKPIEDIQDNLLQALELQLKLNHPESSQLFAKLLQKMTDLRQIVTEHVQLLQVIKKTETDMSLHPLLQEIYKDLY
Peroxisome proliferator-activated receptor gamma/Nuclear receptor coactivator 2, sequence (Q15596 whole entry, further chain): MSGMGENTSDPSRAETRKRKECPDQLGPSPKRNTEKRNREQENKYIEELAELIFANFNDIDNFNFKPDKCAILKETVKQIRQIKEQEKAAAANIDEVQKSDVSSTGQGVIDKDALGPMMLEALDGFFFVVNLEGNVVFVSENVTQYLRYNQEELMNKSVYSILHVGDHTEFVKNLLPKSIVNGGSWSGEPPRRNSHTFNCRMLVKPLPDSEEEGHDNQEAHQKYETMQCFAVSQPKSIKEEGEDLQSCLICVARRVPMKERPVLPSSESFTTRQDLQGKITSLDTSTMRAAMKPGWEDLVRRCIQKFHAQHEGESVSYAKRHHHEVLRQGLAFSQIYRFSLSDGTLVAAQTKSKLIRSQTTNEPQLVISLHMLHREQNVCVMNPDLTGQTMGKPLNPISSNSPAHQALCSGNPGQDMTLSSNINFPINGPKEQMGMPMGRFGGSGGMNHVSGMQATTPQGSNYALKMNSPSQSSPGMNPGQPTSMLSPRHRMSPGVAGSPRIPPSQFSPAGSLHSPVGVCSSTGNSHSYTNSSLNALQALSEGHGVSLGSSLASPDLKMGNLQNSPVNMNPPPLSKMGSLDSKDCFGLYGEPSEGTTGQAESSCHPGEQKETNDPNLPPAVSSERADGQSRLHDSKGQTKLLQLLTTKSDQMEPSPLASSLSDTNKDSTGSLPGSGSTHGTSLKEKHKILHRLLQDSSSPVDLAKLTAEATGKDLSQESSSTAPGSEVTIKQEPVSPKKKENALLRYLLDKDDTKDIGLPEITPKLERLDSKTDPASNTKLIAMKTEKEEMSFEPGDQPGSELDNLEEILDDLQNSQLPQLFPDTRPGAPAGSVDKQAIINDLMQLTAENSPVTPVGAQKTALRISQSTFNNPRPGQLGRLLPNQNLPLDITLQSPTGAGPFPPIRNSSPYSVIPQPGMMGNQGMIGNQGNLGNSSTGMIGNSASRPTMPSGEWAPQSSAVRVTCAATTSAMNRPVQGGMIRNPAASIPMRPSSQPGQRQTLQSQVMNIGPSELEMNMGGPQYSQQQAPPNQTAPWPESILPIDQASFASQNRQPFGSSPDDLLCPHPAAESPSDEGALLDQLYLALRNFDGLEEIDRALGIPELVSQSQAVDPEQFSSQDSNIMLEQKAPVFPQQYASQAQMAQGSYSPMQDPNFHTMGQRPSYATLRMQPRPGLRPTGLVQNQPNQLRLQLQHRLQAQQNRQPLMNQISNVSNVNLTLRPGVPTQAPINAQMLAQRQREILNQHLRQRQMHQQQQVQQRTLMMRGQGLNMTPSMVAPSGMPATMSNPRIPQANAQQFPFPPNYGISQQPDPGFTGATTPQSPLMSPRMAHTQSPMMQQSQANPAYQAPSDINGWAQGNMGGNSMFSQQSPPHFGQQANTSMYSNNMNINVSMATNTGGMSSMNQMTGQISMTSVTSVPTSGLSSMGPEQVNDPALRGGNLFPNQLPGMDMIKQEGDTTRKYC
Peroxisome proliferator-activated receptor gamma/Nuclear receptor coactivator 3, sequence (P37231 whole entry): as the sequence (P37231 whole entry) above
Peroxisome proliferator-activated receptor gamma/Nuclear receptor coactivator 3, sequence (Q9Y6Q9 whole entry, further chain): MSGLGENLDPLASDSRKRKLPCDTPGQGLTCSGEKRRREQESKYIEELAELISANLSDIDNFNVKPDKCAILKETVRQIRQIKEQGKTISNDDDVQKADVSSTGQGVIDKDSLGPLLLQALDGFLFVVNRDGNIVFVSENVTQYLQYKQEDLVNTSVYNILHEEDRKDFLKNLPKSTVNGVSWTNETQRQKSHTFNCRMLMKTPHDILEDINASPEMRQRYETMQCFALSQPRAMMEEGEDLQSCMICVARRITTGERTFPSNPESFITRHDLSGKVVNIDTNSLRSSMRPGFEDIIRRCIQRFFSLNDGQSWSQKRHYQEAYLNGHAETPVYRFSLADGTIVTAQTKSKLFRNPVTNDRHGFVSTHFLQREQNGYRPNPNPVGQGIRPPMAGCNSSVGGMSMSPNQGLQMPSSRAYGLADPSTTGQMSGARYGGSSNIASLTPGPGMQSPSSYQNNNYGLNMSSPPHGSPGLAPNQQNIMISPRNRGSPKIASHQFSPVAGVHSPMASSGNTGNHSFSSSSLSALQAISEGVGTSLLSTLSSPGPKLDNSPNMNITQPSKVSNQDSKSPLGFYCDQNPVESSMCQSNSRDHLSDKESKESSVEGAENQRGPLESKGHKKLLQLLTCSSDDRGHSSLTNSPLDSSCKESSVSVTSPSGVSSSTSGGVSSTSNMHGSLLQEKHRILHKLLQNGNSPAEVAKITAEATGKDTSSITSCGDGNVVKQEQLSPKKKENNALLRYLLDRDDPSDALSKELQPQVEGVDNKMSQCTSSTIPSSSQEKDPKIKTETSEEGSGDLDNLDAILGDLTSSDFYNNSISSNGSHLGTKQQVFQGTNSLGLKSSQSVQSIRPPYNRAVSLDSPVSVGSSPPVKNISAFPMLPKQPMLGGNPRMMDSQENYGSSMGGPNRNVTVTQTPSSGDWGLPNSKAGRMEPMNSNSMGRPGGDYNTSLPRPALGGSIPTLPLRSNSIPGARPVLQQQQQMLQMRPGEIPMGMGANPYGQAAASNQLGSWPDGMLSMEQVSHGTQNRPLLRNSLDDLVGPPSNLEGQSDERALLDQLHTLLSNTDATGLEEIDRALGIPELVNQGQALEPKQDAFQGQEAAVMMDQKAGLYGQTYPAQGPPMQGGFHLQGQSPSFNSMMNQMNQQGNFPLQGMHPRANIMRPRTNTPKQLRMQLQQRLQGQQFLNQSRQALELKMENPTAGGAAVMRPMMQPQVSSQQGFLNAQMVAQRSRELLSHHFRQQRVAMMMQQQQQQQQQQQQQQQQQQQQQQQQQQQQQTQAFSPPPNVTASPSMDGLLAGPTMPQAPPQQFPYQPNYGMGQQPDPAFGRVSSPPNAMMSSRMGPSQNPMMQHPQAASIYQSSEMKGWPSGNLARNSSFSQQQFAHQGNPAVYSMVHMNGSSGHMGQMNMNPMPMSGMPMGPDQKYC
Neurotensin receptor type 1, sequence (P30989 whole entry): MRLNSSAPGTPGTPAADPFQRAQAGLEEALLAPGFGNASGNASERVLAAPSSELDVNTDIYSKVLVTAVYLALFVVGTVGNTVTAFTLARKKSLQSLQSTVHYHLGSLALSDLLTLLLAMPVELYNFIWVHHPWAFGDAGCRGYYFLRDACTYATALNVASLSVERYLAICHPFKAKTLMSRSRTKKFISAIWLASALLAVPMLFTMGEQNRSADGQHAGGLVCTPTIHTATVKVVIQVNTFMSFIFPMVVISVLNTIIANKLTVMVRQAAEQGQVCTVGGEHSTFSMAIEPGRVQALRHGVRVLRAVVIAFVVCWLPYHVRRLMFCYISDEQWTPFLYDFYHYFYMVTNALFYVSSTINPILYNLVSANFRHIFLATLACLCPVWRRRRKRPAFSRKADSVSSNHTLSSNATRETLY

Which results are given for `O=c1oc2ccccc2cc1-c1cn2ccccc2n1`?
EC50 (BJ [1]): 11 µM (active); EC50 [2]: > 79.4 µM (not active); EC50 (BJ [3]): 2.92 µM (active); EC50 [4]: > 79.4 µM (not active); AC50 [5]: > 70 µM (inactive); EC50 [6]: > 79.4 µM (not active); AC50 [7]: 20.3 µM (active); EC50 [8]: 3.59 µM (active); EC50 (BJ [9]): 17.1 µM (active); AC50 [10]: 3.64 µM (active)

With `COc1ccc(C2=CSC3=NCCN23)cc1F` as the compound, how does the IC50 [11] read?
Its IC50 is > 64 µM (inactive).

And the IC50 (Coagulation factor XII)?
Its IC50 is > 50 µM (inactive).

With `COc1ccc(S(=O)(=O)Nc2ccncc2)cc1OC` as the compound, how does the IC50 [12] read?
The IC50 was > 100 µM (not active).

What about the IC50 [13] of the same compound?
The IC50 was > 100 µM (inactive).

Which EC50 [2] does the source give for `OC(C#CCN1CCCC1)(c1ccccc1)c1cccc(F)c1` (stereo unspecified) here?
Its EC50 is > 79.4 µM (not active).

And the EC50 [4]?
The EC50 was > 79.4 µM (not active).

What about the EC50 [6] of the same compound?
The EC50 was > 79.4 µM (not active).

With `O=C(NCCc1ccncc1)c1ccccc1F` as the compound, how does the IC50 [11] read?
The IC50 was > 64 µM (inactive).

What does the source list for `CC(C)N1CCN(Cc2ccc(Oc3ncccn3)cc2)CC1CCO` (stereo unspecified)?
EC50 [2]: > 79.4 µM (not active); EC50 [4]: > 79.4 µM (not active); EC50 [6]: > 79.4 µM (not active)

With `CCCOc1ccc(C(=O)NC(C)C(=O)O)cc1` (stereo unspecified) as the compound, how does the IC50 (Coagulation factor XII) read?
Its IC50 is > 50 µM (inactive).

What does the source list for `Cc1ccc(S(=O)(=O)Nc2nc3ccccc3nc2Cl)cc1`?
IC50 [12]: > 100 µM (not active); IC50 [13]: > 100 µM (inactive)

What does the source list for `Cc1ccc(NC(=O)CSc2nnc(-c3ccc(S(=O)(=O)N4CCCC4)cc3)o2)cc1C`?
EC50 [2]: 39.8 µM (not active); EC50 [4]: 81.2 µM (not active); EC50 [6]: > 79.4 µM (not active)

With `O=C1c2c(Cl)c(Cl)c(Cl)c(Cl)c2C(=O)N1c1nnc(CCc2ccccc2)[nH]1` as the compound, how does the IC50 [12] read?
Its IC50 is > 100 µM (not active).

What about the IC50 [13] of the same compound?
The IC50 was > 100 µM (inactive).

What does the source list for `Cc1cc(F)ccc1S(=O)(=O)Nc1ccccc1C(=O)Nc1ccccc1-c1nc2ccccc2[nH]1`?
AC50 [5]: 23.2 µM (active); AC50 (INS1): 6.59 µM (active); AC50 [7]: 9.69 µM (active); AC50 [10]: 12.1 µM (active); AC50 [14]: 2.02 µM (active); EC50 [15]: 29 µM (inactive)

Which IC50 [11] does the source give for `CC(C)CC(=O)N1CCN(Cc2cccc(F)c2)CC1` here?
Its IC50 is > 64 µM (inactive).

With `CCC(C)NC(=O)C1CN(S(=O)(=O)c2ccccc2)CCN1S(=O)(=O)c1ccccc1` (stereo unspecified) as the compound, how does the IC50 (Coagulation factor XII) read?
Its IC50 is > 50 µM (inactive).

For `NS(=O)(=O)c1ccc(NC(=O)COC(=O)c2ncc(Cl)c(Cl)c2Cl)cc1`, which IC50 [16] is on record?
The IC50 was > 64.6 µM (inactive).

What about the IC50 (Melanocortin receptor 4) of the same compound?
Its IC50 is > 64.6 µM (inactive).

With `O=C(N/N=C/c1ccc(OC(=O)c2ccccc2Cl)cc1)c1ccc(O)cc1` as the compound, how does the EC50 [15] read?
The EC50 was 17.1 µM (active).

For `CN(Cc1ccccc1)c1nc2c(c(=O)[nH]c(=O)n2C)n1CCCSc1ncccn1`, which IC50 (Coagulation factor XII) is on record?
The IC50 was > 50 µM (inactive).

From ChEMBL document CHEMBL1201862, “PubChem BioAssay data set” (2004)
